Test results as given in ChEMBL document CHEMBL5625208, “Tumor selective self-assembled nanomicelles of carbohydrate-epothilone B conjugate for targeted chemotherapy” (Eur J Med Chem, 2023).
Activity calls are given as the source filed them. No cut-off for these calls is given here.

How the values were obtained:
[1] = system: NCI-460/Taxol; assay: Antiproliferative activity against human NCI-460/taxol cells assessed as reduction in cell viability after 72 hrs by MTT assay; type: functional, cell-based
[2] = system: MCF7; assay: Antiproliferative activity against human MCF7 cells assessed as reduction in cell viability after 72 hrs by MTT assay; type: functional, cell-based
[3] = system: HepG2; assay: Antiproliferative activity against human HepG2 cells assessed as reduction in cell viability after 72 hrs by MTT assay; type: functional, cell-based
[4] = system: NCI-H460; assay: Antiproliferative activity against human NCI-H460 cells assessed as reduction in cell viability after 72 hrs by MTT assay; type: functional, cell-based
[5] = Toxicity in mouse xenografted with human MCF7 cells assessed as animal death at 3.2 mg/kg, ip administered every 3 days for 3 times and measured after 14 days; type: organism-based; details: in vivo, 336 h, time 14 day
[6] = system: MCF7; assay: Antitumor activity against human MCF7 cells xenografted in mouse assessed as reduction in tumor weight at 3.2 to 6.4 mg/kg, ip administered every 3 days for 3 times and measured after 14 days; type: functional, organism-based; details: dose 3.2-6.4 mg/kg, time 14.0 day
[7] = system: L02; assay: Cytotoxicity against human HL7702 cells incubated for 72 hrs by MTT assay; type: toxicity, cell-based; details: l02, 72 h
[8] = system: MCF7; assay: Antitumor activity against human MCF7 cells xenografted in mouse assessed as appearance of intracellular space dilatation in tumor cells at 3.2 to 6.4 mg/kg, ip administered every 3 days for 3 times measured after 14 days by H and E staining based assay; type: functional, organism-based; details: dose 3.2-6.4 mg/kg, time 14.0 day
[9] = Toxicity in mouse xenografted with human MCF7 cells assessed as kidney damage at 3.2 mg/kg, ip administered every 3 days for 3 times and measured after 14 days; type: organism-based; details: in vivo, 336 h, time 14 day
[10] = Prodrug release in DTT at pH 7.4 assessed as Epothilone B release after 12 hrs by HPLC analysis; type: ADME; details: pH 7.4, 12 h
[11] = Toxicity in mouse xenografted with human MCF7 cells assessed as change in body weight at 3.2 mg/kg, ip administered every 3 days for 3 times and measured after 14 days; type: organism-based; details: in vivo, 336 h, time 14 day
[12] = system: MCF7; assay: Antitumor activity against human MCF7 cells xenografted in mouse assessed as appearance of small cavities in tumor cells at 3.2 to 6.4 mg/kg, ip administered every 3 days for 3 times measured after 14 days by H and E staining based assay; type: functional, organism-based; details: dose 3.2-6.4 mg/kg, time 14.0 day
[13] = Toxicity in mouse xenografted with human MCF7 cells assessed as spleen damage at 3.2 mg/kg, ip administered every 3 days for 3 times and measured after 14 days; type: organism-based; details: in vivo, 336 h, time 14 day
[14] = system: MCF7; assay: Antitumor activity against human MCF7 cells xenografted in mouse assessed as reduction in PCNA positive cells at 3.2 to 6.4 mg/kg, ip administered every 3 days for 3 times measured after 14 days by H and E staining based assay; type: functional, organism-based; details: dose 3.2-6.4 mg/kg, time 14.0 day
[15] = Prodrug release in DTT at pH 7.4 after 12 hrs by HPLC analysis; type: ADME; details: pH 7.4, 12 h
[16] = system: MCF7; assay: Antiproliferative activity against human MCF7 cells assessed as reduction in cell viability preincubated for with NEM for 1 hr followed by compound addition by xCELLigence real time analysis; type: functional, cell-based
[17] = Prodrug release in PBS at pH 7.4 assessed as Epothilone B release in presence of different concentrations of DTT by HPLC analysis; type: ADME; details: buffer
[18] = Toxicity in mouse xenografted with human MCF7 cells assessed as reduction in body weight at 3 mg/kg, ip administered every 3 days for 3 times and measured after 14 days; type: organism-based; details: in vivo, 336 h, time 14 day
[19] = Toxicity in mouse xenografted with human MCF7 cells at 3 mg/kg, ip administered every 3 days for 3 times and measured after 14 days; type: organism-based; details: in vivo, 336 h, time 14 day
[20] = system: BEAS-2B; assay: Cytotoxicity against human BEAS-2B cells incubated for 72 hrs by MTT assay; type: toxicity, cell-based
[21] = system: MCF7; assay: Antitumor activity against human MCF7 cells xenografted in mouse assessed as reduction in tumor growth at 3.2 to 6.4 mg/kg, ip administered every 3 days for 3 times and measured after 14 days; type: functional, organism-based; details: dose 3.2-6.4 mg/kg, time 14.0 day
[22] = system: MCF7; assay: Antiproliferative activity against human MCF7 cells assessed as reduction in cell viability at 1 to 1000 nM preincubated for with NEM for 1 hr followed by compound addition and measured after 72 hrs by MTT assay; type: functional, cell-based; details: dose 1-1000 nM
[23] = system: MCF7; assay: Antiproliferative activity against human MCF7 cells assessed as reduction in cell viability at 1 to 1000 nM preincubated for with rhamnose for 1 hr followed by compound addition and measured after 72 hrs by MTT assay; type: functional, cell-based; details: dose 1-1000 nM
[24] = Stability in mouse plasma; type: ADME, cell-free
[25] = system: MCF7; assay: Antitumor activity against human MCF7 cells xenografted in mouse assessed as appearance of small cavities in tumor cells at 1.5 to 3 mg/kg, ip administered every 3 days for 3 times measured after 14 days by H and E staining based assay; type: functional, organism-based; details: dose 1.5-3 mg/kg, time 14.0 day
[26] = system: MCF7; assay: Antitumor activity against human MCF7 cells xenografted in mouse assessed as appearance of intracellular space dilatation in tumor cells at 1.5 to 3 mg/kg, ip administered every 3 days for 3 times measured after 14 days by H and E staining based assay; type: functional, organism-based; details: dose 1.5-3 mg/kg, time 14.0 day
[27] = Toxicity in mouse xenografted with human MCF7 cells assessed as animal death at 3 mg/kg, ip administered every 3 days for 3 times and measured on day 8; type: organism-based; details: in vivo, 192 h, time 8 day
[28] = system: MCF7; assay: Antitumor activity against human MCF7 cells xenografted in mouse assessed as reduction in PCNA positive cells at 1.5 to 3 mg/kg, ip administered every 3 days for 3 times measured after 14 days by H and E staining based assay; type: functional, organism-based; details: dose 1.5-3 mg/kg, time 14.0 day

C/C(=C\c1csc(C)n1)[C@@H]1C[C@@H]2O[C@]2(C)CCC[C@H](C)[C@H](OC(=O)OCCSSCCOCc2cn(CCOCCOCCOCCO[C@@H]3O[C@H](CO)[C@@H](O[C@@H]4O[C@@H](C)[C@H](O)[C@@H](O)[C@H]4O)[C@H](O)[C@H]3O[C@@H]3O[C@@H](C)[C@H](O)[C@@H](O)[C@H]3O)nn2)[C@@H](C)C(=O)C(C)(C)[C@@H](O)CC(=O)O1
Activity [1]: Active | Activity [2]: Active | Activity [3]: Active | Activity [4]: Active

C/C(=C\c1csc(C)n1)[C@@H]1C[C@@H]2O[C@]2(C)CCC[C@H](C)[C@H](OC(=O)OCCSSCCOCc2cn(CCOCCOCCOCCO[C@@H]3O[C@@H](C)[C@H](O)[C@@H](O)[C@H]3O)nn2)[C@@H](C)C(=O)C(C)(C)[C@@H](O)CC(=O)O1
Activity [5]: Non-Toxic | Activity [6]: Active | Activity [7]: Non-Toxic | Activity [8]: Active | Activity [9]: Non-Toxic | Drug metabolism [10]: Active | Activity [11]: Non-Toxic | Activity [1]: Active | Activity [12]: Active | Activity [13]: Non-Toxic | Activity [14]: Active | Drug metabolism [15]: Active | Activity [16]: inactive | Drug metabolism [17]: Not Active | Activity [18]: Non-Toxic | Activity [19]: Non-Toxic | Activity [20]: Non-Toxic | Activity [21]: Active | Activity [2]: Active | Activity [3]: Active | Activity [4]: Active | Activity [22]: inactive | Activity [23]: inactive | Stability [24]: Stable

C/C(=C\c1csc(C)n1)[C@@H]1C[C@@H]2O[C@]2(C)CCC[C@H](C)[C@H](OC(=O)Cc2ccccc2SSCCC(=O)NCc2cn(CCOCCOCCOCCO[C@@H]3O[C@@H](C)[C@H](O)[C@@H](O)[C@H]3O)nn2)[C@@H](C)C(=O)C(C)(C)[C@@H](O)CC(=O)O1
Drug metabolism [10]: Not Active | Drug metabolism [15]: Active

C/C(=C\c1csc(C)n1)[C@@H]1C[C@@H]2O[C@]2(C)CCC[C@H](C)[C@H](O)[C@@H](C)C(=O)C(C)(C)[C@@H](O)CC(=O)O1 [PATUPILONE]
Activity [25]: Active | Activity [26]: Active | Activity [18]: Toxic | Activity [27]: Toxic | Activity [28]: Active | Activity [22]: Active
